Experimental data taken from publication PMC9944328 (Nature Communications, 2023).

Test system: SSTR2 mutants
Experiment: NanoBiT β-arrestin 1 recruitment assay, HEK293 (SSTR2 mutants);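 for Best-fit Bottom: percent of maximal wild-type SSTR2 response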;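 for Best-fit Span: percent of maximal wild-type SSTR2 response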;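 for Best-fit Top: percent of maximal wild-type SSTR2 response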;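 for Bottom (best-fit): percent of maximal wild-type response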;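 for Span (best-fit value): percent of maximal wild-type response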;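 for Span (best-fit): percent of maximal wild-type response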;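 for Top (best-fit value): percent of maximal wild-type response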;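 for Top (best-fit): percent of maximal wild-type response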
Assay type: cell-based, human
Conditions: for Bottom (β-arrestin1 recruitment) / LogEC50 (β-arrestin1 recruitment) / Span (β-arrestin1 recruitment) / Top (β-arrestin1 recruitment): best-fit
Method: The NanoBiT β-arrestin 1 recruitment assays were carried out according to the method described previously. […] Human full-length SSTR wild-type and mutant vectors were C-terminally fused with a 15-amino acid flexible linker and the small fragment (SmBiT). HEK293 cells were seeded into six-well microplates at a density of 1.0 × 10^6 cells/well and cultured for 24 h at 37 °C with 5% CO2. After that, cells were co-transfected with pcDNA3.1+ vectors encoding SSTR wild-type or mutants and human β-arrestin 1. After transfecting for 24 h, the transfected cells were suspended and seeded into white 96-well plates, and then cultured at 37 °C overnight. After that the medium in each well was exchanged for 90 μl of 0.01% bovine serum albumin containing 20 μl of 50 μM coelenterazine h (Carbosynth) diluted in the HBSS assay buffer and incubated for 40 min at room temperature. Then, ligands diluted in the assay buffer was added to each well and the luminescence intensity was measured using the Synergy H1 microplate reader and detected at room temperature in a time period. All data presented are means of at least three independent experiments.

## N#Cc1cccc(-c2ccc3ncc(-c4cc(F)cc(F)c4)c(N4CCC(N)CC4)c3c2)c1O [paltusotine]
F127A-1
  Bottom (best-fit): -1.415
  LogEC50 (best-fit): -6.677
  Span (best-fit): 63.7
  Top (best-fit): 62.28
F127A-2
  Bottom (best-fit): -1.034
  LogEC50 (best-fit): -6.706
  Span (best-fit): 59.48
  Top (best-fit): 58.45
F127A-3
  Bottom (best-fit): -1.184
  LogEC50 (best-fit): -6.817
  Span (best-fit): 69.08
  Top (best-fit): 67.89
F294(7.35)A
  β-arrestin recruitment of mutant: slightly influenced the β-arrestin pathway
I284ECL3A, K291(7.32)A and N276(6.55)A
  β-arrestin recruitment of mutants: slightly enhanced recruitment of β-arrestin
SSTR2 I284A, run 1
  Best-fit Bottom: -1.437
  Best-fit LogEC50: -6.742
  Best-fit Span: 206.6
  Best-fit Top: 205.2
SSTR2 I284A, run 2
  Best-fit Bottom: -1.082
  Best-fit LogEC50: -6.742
  Best-fit Span: 155.6
  Best-fit Top: 154.5
SSTR2 I284A, run 3
  Best-fit Bottom: -1.233
  Best-fit LogEC50: -6.745
  Best-fit Span: 219.6
  Best-fit Top: 218.3
SSTR2 W269A, run W269A-1
  Bottom (best-fit value): -0.1166
  LogEC50 (best-fit value): -6.523
  Span (best-fit value): 23.55
  Top (best-fit value): 23.43
SSTR2 W269A, run W269A-2
  Bottom (best-fit value): -0.1813
  LogEC50 (best-fit value): -6.214
  Span (best-fit value): 28.45
  Top (best-fit value): 28.27
SSTR2 W269A, run W269A-3
  Bottom (best-fit value): 0.3375
  LogEC50 (best-fit value): -6.325
  Span (best-fit value): 20.32
  Top (best-fit value): 20.66
SSTR2 Y50A, run 1
  Best-fit Bottom: -1.913
  Best-fit LogEC50: -7.128
  Best-fit Span: 70.62
  Best-fit Top: 68.71
SSTR2 Y50A, run 2
  Best-fit Bottom: -2.472
  Best-fit LogEC50: -7.187
  Best-fit Span: 103.4
  Best-fit Top: 100.9
SSTR2 Y50A, run 3
  Best-fit Bottom: -2.529
  Best-fit LogEC50: -7.176
  Best-fit Span: 105.2
  Best-fit Top: 102.6
SSTR2 Y205A, run Y205A-1
  Bottom (best-fit value): -3.142
  LogEC50 (best-fit value): -6.819
  Span (best-fit value): 125.5
  Top (best-fit value): 122.3
SSTR2 Y205A, run Y205A-2
  Bottom (best-fit value): -4.259
  LogEC50 (best-fit value): -6.824
  Span (best-fit value): 138.9
  Top (best-fit value): 134.6
SSTR2 Y205A, run Y205A-3
  Bottom (best-fit value): -4.015
  LogEC50 (best-fit value): -6.671
  Span (best-fit value): 203.2
  Top (best-fit value): 199.2
V103(2.64)A
  β-arrestin signal of mutant: markedly reduced the paltusotine-induced β-arrestin signal
D295A-1
  Bottom (β-arrestin1 recruitment): 0.727
  LogEC50 (β-arrestin1 recruitment): -5.635
  Span (β-arrestin1 recruitment): 100
  Top (β-arrestin1 recruitment): 100.7
D295A-2
  Bottom (β-arrestin1 recruitment): 1.431
  LogEC50 (β-arrestin1 recruitment): -5.595
  Span (β-arrestin1 recruitment): 100.8
  Top (β-arrestin1 recruitment): 102.3
D295A-3
  Bottom (β-arrestin1 recruitment): 0.3814
  LogEC50 (β-arrestin1 recruitment): -5.706
  Span (β-arrestin1 recruitment): 93.14
  Top (β-arrestin1 recruitment): 93.53
F294A-1
  Bottom (β-arrestin1 recruitment): -2.632
  LogEC50 (β-arrestin1 recruitment): -5.979
  Span (β-arrestin1 recruitment): 125.8
  Top (β-arrestin1 recruitment): 123.2
F294A-2
  Bottom (β-arrestin1 recruitment): -1.982
  LogEC50 (β-arrestin1 recruitment): -5.979
  Span (β-arrestin1 recruitment): 94.75
  Top (β-arrestin1 recruitment): 92.77
F294A-3
  Bottom (β-arrestin1 recruitment): -2.454
  LogEC50 (β-arrestin1 recruitment): -6.059
  Span (β-arrestin1 recruitment): 130.8
  Top (β-arrestin1 recruitment): 128.3
K291A-1
  Bottom (β-arrestin1 recruitment): -2.723
  LogEC50 (β-arrestin1 recruitment): -7.098
  Span (β-arrestin1 recruitment): 158
  Top (β-arrestin1 recruitment): 155.2
K291A-2
  Bottom (β-arrestin1 recruitment): -3.352
